Measurements: US12384808B2, “Modulators of TNF-α activity” (Forward Therapeutics, Inc., priority 2022, dated 2025)

molecular target: TNFα (Homo sapiens, UniProt P01375); experiment: TNFα Induced HEK Blue Cellular Assay; assay type: cell-based; settings: HEK Blue TNFα reporter cells, TNFα 100 pg/ml, 24 hrs at 37° C., secreted alkaline phosphatase (QUANTI-Blue) read at 620 nm; read-out: IC50 value
Procedure: TNFα Induced HEK Blue Cellular Assay
Test articles were diluted in DMSO and serially diluted into 384 well assay plate (Corning 3765), at final concentrations ranging from […] to 0.5 nM. HEK Blue™ TNFα reporter cells were added at a final density of 10,000 cell per well in assay media [DMEM (Gibco, cat #21063-029), 10% fetal bovine serum (ExcelBio, cat #FND500), 1% Penicillin-Streptomycin (Solarbio, cat #P1400-100]. TNFα (R&D 210-TA-020/CF) was then added to the assay plate at a final concentration of 100 pg/ml. This plate was then incubated for 24 hrs at 37° C. and 5% CO2. Secreted alkaline phosphatase expression was then measured using QUANTI-Blue™ (Invivogen), according to manufacturer instructions and read on an Envision microplate reader at 620 nm.
Inhibition data for test compound over a range of concentration was plotted as percentage inhibition of the test compound (100%=maximum inhibition). IC50 values were determined after correcting for background [(sample read−mean of low control)/(mean of high control−mean of low control)] where by the low control is DMSO without stimulation and high control is DMSO with stimulation. The IC50 is defined as the concentration of test compound which produces 50% inhibition and was quantified using the 4 parameter logistic equation to fit the data.

TNFα, sequence (P01375 77-233 limits assumed): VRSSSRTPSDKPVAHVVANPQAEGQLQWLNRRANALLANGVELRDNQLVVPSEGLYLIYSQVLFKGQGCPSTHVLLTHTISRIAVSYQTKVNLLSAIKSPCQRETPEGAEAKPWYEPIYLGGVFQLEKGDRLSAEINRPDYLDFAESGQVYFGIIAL

SMILES	IC50 [nM]
[2H]C([2H])([2H])N1C(=O)c2cccc(OC(F)F)c2[C@H]2C[C@@H]1c1nc3ccc(-c4ccc(C(C)P(C)(C)=O)cc4)cc3n12 (single isomer, unassigned) [Example 85, (7R,14R)-1-(difluoromethoxy)-11-(4-((S or R)-1-(dimethylphosphoryl)ethyl)phenyl)-6-(methyl-d3)-6,7-dihydro-7,14-methanobenzo[f]benzo[4,5]imidazo[1,2-a][1,4]diazocin-5(14H)-one]	< 100
[2H]C([2H])([2H])N1C(=O)c2cccc(OC(F)F)c2[C@H]2C[C@@H]1c1nc3ccc(-c4ccc(C(C)P(C)(C)=O)cc4)cc3n12 (single isomer, unassigned) [Example 86, (7R,14R)-1-(difluoromethoxy)-11-(4-((R or S)-1-(dimethylphosphoryl)ethyl)phenyl)-6-(methyl-d3)-6,7-dihydro-7,14-methanobenzo[f]benzo[4,5]imidazo[1,2-a][1,4]diazocin-5(14H)-one]	< 100
[2H]C([2H])([2H])N1C(=O)c2cccc(OC(F)F)c2[C@H]2C[C@@H]1c1nc3ccc(-c4ccc(C(C)P(C)(C)=O)c(F)c4)cc3n12 (single isomer, unassigned) [Example 99, (7R,14R)-1-(difluoromethoxy)-11-(4-((S or R)-1-(dimethylphosphoryl)ethyl)-3-fluorophenyl)-6-(methyl-d3)-6,7-dihydro-7,14-methanobenzo[f]benzo[4,5]imidazo[1,2-a][1,4]diazocin-5(14H)-one]	< 100
[2H]C([2H])([2H])N1C(=O)c2cccc(OC(F)F)c2[C@H]2C[C@@H]1c1nc3ccc(-c4ccc(C(C)P(C)(C)=O)c(F)c4)cc3n12 (single isomer, unassigned) [Example 100, (7R,14R)-1-(difluoromethoxy)-11-(4-((R or S)-1-(dimethylphosphoryl)ethyl)-3-fluorophenyl)-6-(methyl-d3)-6,7-dihydro-7,14-methanobenzo[f]benzo[4,5]imidazo[1,2-a][1,4]diazocin-5(14H)-one]	< 100
[2H]C([2H])([2H])N1C(=O)c2cccc(OC(F)F)c2[C@H]2C[C@@H]1c1nc3ccc(-c4cc(F)c(C(C)P(C)(C)=O)c(F)c4)cc3n12 (single isomer, unassigned) [Example 109, (7R,14R)-1-(difluoromethoxy)-11-(4-((R or S)-1-(dimethylphosphoryl)ethyl)-3,5-difluorophenyl)-6-(methyl-d3)-6,7-dihydro-7,14-methanobenzo[f]benzo[4,5]imidazo[1,2-a][1,4]diazocin-5(14H)-one]	< 100
[2H]C([2H])([2H])N1C(=O)c2cccc(OC(F)F)c2[C@H]2C[C@@H]1c1nc3ccc(-c4ccc(C(C)(O)P(C)(C)=O)cc4)cc3n12 (single isomer, unassigned) [Example 110, (7R,14R)-1-(difluoromethoxy)-11-(4-((S or R)-1-(dimethylphosphoryl)-1-hydroxyethyl)phenyl)-6-(methyl-d3)-6,7-dihydro-7,14-methanobenzo[f]benzo[4,5]imidazo[1,2-a][1,4]diazocin-5(14H)-one]	< 100
[2H]C([2H])([2H])N1C(=O)c2cccc(OC(F)F)c2[C@H]2C[C@@H]1c1nc3ccc(-c4ccc([C@@](C)(O)P(C)(C)=O)cc4)cc3n12 (single isomer, unassigned) [Example 111, (7R,14R)-1-(difluoromethoxy)-11-(4-((R or S)-1-(dimethylphosphoryl)-1-hydroxyethyl)phenyl)-6-(methyl-d3)-6,7-dihydro-7,14-methanobenzo[f]benzo[4,5]imidazo[1,2-a][1,4]diazocin-5(14H)-one]	< 100
[2H]C([2H])([2H])N1C(=O)c2cccc(OC(F)F)c2[C@H]2C[C@@H]1c1nc3ccc(-c4cc(F)c(C(C)P(C)(C)=O)c(F)c4)cc3n12 (single isomer, unassigned) [Example 112, (7R,14R)-1-(difluoromethoxy)-11-(4-((S or R)-1-(dimethylphosphoryl)ethyl)-3,5-difluorophenyl)-6-(methyl-d3)-6,7-dihydro-7,14-methanobenzo[f]benzo[4,5]imidazo[1,2-a][1,4]diazocin-5(14H)-one]	< 100
[2H]C([2H])([2H])N1C(=O)c2cccc(OC(F)F)c2[C@H]2C[C@@H]1c1nc3ccc(-c4ccc([C@@H](C)P(C)(C)=O)c(F)c4C)cc3n12 (single isomer, unassigned) [Example 113, (7R,14R)-1-(difluoromethoxy)-11-(4-((R or S)-1-(dimethylphosphoryl)ethyl)-3-fluoro-2-methylphenyl)-6-(methyl-d3)-6,7-dihydro-7,14-methanobenzo[f]benzo[4,5]imidazo[1,2-a][1,4]diazocin-5(14H)-one]	< 100
[2H]C([2H])([2H])N1C(=O)c2cccc(OC(F)F)c2[C@H]2C[C@@H]1c1nc3ccc(-c4ccc([C@H](C)P(C)(C)=O)c(F)c4C)cc3n12 (single isomer, unassigned) [Example 114, (7R,14R)-1-(difluoromethoxy)-11-(4-((S or R)-1-(dimethylphosphoryl)ethyl)-3-fluoro-2-methylphenyl)-6-(methyl-d3)-6,7-dihydro-7,14-methanobenzo[f]benzo[4,5]imidazo[1,2-a][1,4]diazocin-5(14H)-one]	< 100
[2H]C([2H])([2H])N1C(=O)c2cccc(OC(F)F)c2[C@H]2C[C@@H]1c1nc3ccc(-c4cc(F)c(C(C)P(C)(C)=O)cc4C)cc3n12 (single isomer, unassigned) [Example 118, (7R,14R)-1-(difluoromethoxy)-11-(4-((R or S)-1-(dimethylphosphoryl)ethyl)-5-fluoro-2-methylphenyl)-6-(methyl-d3)-6,7-dihydro-7,14-methanobenzo[f]benzo[4,5]imidazo[1,2-a][1,4]diazocin-5(14H)-one]	< 100
[2H]C([2H])([2H])N1C(=O)c2cccc(OC(F)F)c2[C@H]2C[C@@H]1c1nc3ccc(-c4cc(F)c(C(C)P(C)(C)=O)cc4C)cc3n12 (single isomer, unassigned) [Example 119, (7R,14R)-1-(difluoromethoxy)-11-(4-((S or R)-1-(dimethylphosphoryl)ethyl)-5-fluoro-2-methylphenyl)-6-(methyl-d3)-6,7-dihydro-7,14-methanobenzo[f]benzo[4,5]imidazo[1,2-a][1,4]diazocin-5(14H)-one]	< 100
CP(C)(=O)c1ncc(-c2ccc3nc4n(c3c2)[C@@H]2C[C@H]4NC(=O)c3cccc(OC(F)F)c32)cn1 [Example 1, (7R,14R)-1-(difluoromethoxy)-11-(2-(dimethylphosphoryl)pyrimidin-5-yl)-6,7-dihydro-7,14-methanobenzo[f]benzo[4,5]imidazo[1,2-a][1,4]diazocin-5(14H)-one]	100 to 1000
CN1C(=O)c2cccc(OC(F)F)c2[C@H]2C[C@@H]1c1nc3ccc(-c4ccc(P(C)(C)=O)nc4)cc3n12 [Example 2, (7R,14R)-1-(difluoromethoxy)-11-(6-(dimethylphosphoryl)pyridin-3-yl)-6-methyl-6,7-dihydro-7,14-methanobenzo[f]benzo[4,5]imidazo[1,2-a][1,4]diazocin-5(14H)-one]	< 100
CP(C)(=O)c1ccc(-c2ccc3nc4n(c3c2)[C@@H]2C[C@H]4NC(=O)c3cccc(OC(F)F)c32)cn1 [Example 3, (7R,14R)-1-(difluoromethoxy)-11-(6-(dimethylphosphoryl)pyridin-3-yl)-6,7-dihydro-7,14-methanobenzo[f]benzo[4,5]imidazo[1,2-a][1,4]diazocin-5(14H)-one]	100 to 1000
CN1C(=O)c2cccc(OC(F)F)c2[C@H]2C[C@@H]1c1nc3ccc(-c4cnc(P(C)(C)=O)c(F)c4)cc3n12 [Example 4, (7R,14R)-1-(difluoromethoxy)-11-(6-(dimethylphosphoryl)-5-fluoropyridin-3-yl)-6-methyl-6,7-dihydro-7,14-methanobenzo[f]benzo[4,5]imidazo[1,2-a][1,4]diazocin-5(14H)-one]	< 100
CN1C(=O)c2cccc(OC(F)F)c2[C@H]2C[C@@H]1c1nc3ccc(-c4ccc(P5(=O)CCCC5)nc4)cc3n12 [Example 5, (1R,11R)-18-(difluoromethoxy)-12-methyl-5-[6-(1-oxo-1lambda5-phospholan-1-yl)pyridin-3-yl]-2,9,12-triazapentacyclo[9.8.1.0^{2,10}.0^{3,8}.0^{14,19}]icosa-3(8),4,6,9,14(19),15,17-heptaen-13-one]	< 100
CN1C(=O)c2cccc(OC(F)F)c2[C@H]2C[C@@H]1c1nc3ccc(-c4ccc(P5(=O)CCOCC5)nc4)cc3n12 [Example 6, (1R,11R)-18-(difluoromethoxy)-12-methyl-5-[6-(4-oxo-1,4lambda5-oxaphosphinan-4-yl)pyridin-3-yl]-2,9,12-triazapentacyclo[9.8.1.0^{2,10}.0^{3,8}.0^{14,19}]icosa-3(8),4,6,9,14(19),15,17-heptaen-13-one]	< 100
CN1C(=O)c2cccc(OC(F)F)c2[C@H]2C[C@@H]1c1nc3ccc(-c4ccc(OCP(C)(C)=O)nc4)cc3n12 [Example 7, (1R,11R)-18-(difluoromethoxy)-5-{6-[(dimethylphosphoryl)methoxy]pyridin-3-yl}-12-methyl-2,9,12-triazapentacyclo[9.8.1.0^{2,10}.0^{3,8}.0^{14,19}]icosa-3(8),4,6,9,14(19),15,17-heptaen-13-one]	< 100
